# Values quoted from earlier work as cited in patent US20190008798A1, “Coenzyme Q10 in the preventive treatment of type 2 diabetes” (Pharma Nord ApS, priority 2017, published 2019).
# Columns and labels:
# adipose tissue = settings: mice
smiles,measurement,setting,value
"COC1=C(OC)C(=O)C(C/C=C(\C)CC/C=C(\C)CC/C=C(\C)CC/C=C(\C)CC/C=C(\C)CC/C=C(\C)CC/C=C(\C)CC/C=C(\C)CC/C=C(\C)CCC=C(C)C)=C(C)C1=O [Q10, ubidecarenone]",insulin sensitivity in the adipose tissue,adipose tissue,improves insulin sensitivity
same,mortality in subjects with cardiac failure,,decrease mortality
